Results: ChEMBL document CHEMBL1151143, “Repin, a sesquiterpene lactone from Acroptilon repens possessing exceptional biological activity” (1990)
Active and inactive are the calls of the source. No cut-off for these calls is given here.

Key:
Neuron [1] = assay: Inhibition of NGF-stimulated extension of neural processes in chick embryo neurons at 300 nM; assay type: functional, cell-based; conditions: Gallus gallus
Neuron [2] = assay: Inhibition of NGF-stimulated extension of neural processes in chick embryo neurons at 80 nM; assay type: functional; conditions: Gallus gallus

Compound | Activity (Neuron [1]) | inhibition at 0.08 µM (Neuron [2])
C=C1C(=O)O[C@H]2[C@H]1[C@@H](OC(=O)[C@@]1(C)CO1)CC(=C)[C@@H]1C[C@H](O)[C@]3(CO3)[C@H]21 | Active | –
C=C1C(=O)O[C@H]2[C@H]1[C@@H](OC(=O)[C@]1(C)CO1)CC(=C)[C@@H]1C[C@H](O)[C@]3(CO3)[C@H]21 [REPIN] | – | 50%
